Test results reported in patent US12391751B2, “Antibody against advanced glycation end products and use thereof” (Bloom Technology Corporation, priority 2018, dated 2025).

Key:
[1] = system: POD-labeled novel monoclonal antibody (SJ-5); experiment: Competitive ELISA of GAL691 and Lys-hydroxy-triosidine against SJ-5 (Example 18); type: binding, mouse; details: immobilized Glycer-AGEs-BSA; competitor 0.625 to 10 mg/mL
Protocol: A solution of BSA containing AGEs derived from glyceraldehyde (stock solution: 10 mg/mL PBS solution) prepared into 1 μg/mL in a coating solution was added at 100 μL/well to a 96-well microtiter plate (COSTAR) and incubated overnight at 4° C.
(§1) Each well after the immobilization treatment was washed three times with a washing solution (300 μL), and a blocking solution (200 μL) was added thereto and left at room temperature for 1 hour.
GAL691 (prepared in Example 16) and Lys-hydroxy-triosidine (prepared in Example 17) were each dissolved in a phosphate buffer solution (0.2 M, pH 7.4) to prepare a 10 mg/mL solution. Sample solutions of 2-fold dilution series from 0.625 to 10 mg/ml (5 points) were further prepared by dilution with a diluting solution. Dilution solutions were also prepared from a blank solution containing no sample in the same way as above. […]
(§2) Absorbance was measured at a dominant wavelength of 450 nm and a sub-wavelength of 650 nm with a microplate reader (Cytation 5, BioTek Instrument Inc.), and the absorbance at the sub-wavelength was subtracted from the absorbance at the dominant wavelength. Change in the absorbance of GAL691 and Lys-hydroxy-triosidine was indicated as relative values to the absorbance of the blank solution.

PB-1 antibody = experiment: Competitive ELISA of GAL691 and known AGEs against PB-1 (Example 31); type: binding, mouse; details: immobilized A-peak-BSA; competitor 0.04 to 2.5 mM; PB-1 0.1 μg/mL
Protocol: Competitive ELISA was conducted using the reagents described in Example 13. A solution of A-peak-BSA prepared into 1 μg/mL in a coating solution was added at 100 μL/well to a 96-well microtiter plate (Costar) and incubated overnight at 4° C.
as §1
GAL691 (prepared in Example 16), GLAP (prepared in Example 12), Lys-hydroxy-triosidine (prepared in Example 17), GA-pyridine (prepared in Example 28), GOLD (prepared in Example 29), and Z-Lys were each dissolved in a phosphate buffer solution (0.2 M, pH 7.4) to prepare a 100 mM solution. Then, a 10 mM solution was prepared by dilution 10-fold with a diluting solution containing BSA (1 mg/mL, FUJIFILM Wako Pure Chemical Corp.). Sample solutions of 4-fold dilution series of 0.04, 0.16, 0.63, and 2.5 mM were further prepared with a diluting solution containing a 10% (v/v) phosphate buffer solution and 1 mg/mL BSA. Ten-fold dilutions of a phosphate buffer solution with a diluting solution containing 1 mg/mL BSA were prepared as blank solutions containing no sample in the same way as above. A 0.1 μg/mL solution of the PB-1 antibody was prepared with a diluting solution containing 1 mg/mL BSA.
Each well treated with the blocking solution was washed three times with a washing solution (300 μL), and the sample solutions of 4-fold dilution series (50 μL each) and the PB-1 antibody dilution solution (50 μL) were added thereto, stirred with a plate mixer for 2 minutes, and then incubated at room temperature for 1 hour.
After the competitive reaction, each well was washed three times with a washing solution (300 μL), and peroxidase-labeled anti-mouse IgG (H+L) polyclonal antibody, F(ab′)2 fragment (Kirkegaard & Perry Laboratories, Inc.) diluted into 0.05 μg/mL with a diluting solution containing 1 mg/mL BSA was added at 100 μL/well and left standing at room temperature for 1 hour.
After washing three times with a washing solution (300 μL), a substrate solution (ELISA POD substrate TMB kit (Popular), Nacalai Tesque, Inc.) was added at 100 μL/well and incubated at room temperature for 10 minutes under light shielding. Then, color development was terminated by the addition of 2 N sulfuric acid (50 μL).
as §2, with “GAL691, GLAP, Lys-hydroxy-triosidine, GA-pyridine, GOLD,” for “GAL691”, “Z-Lys” for “Lys-hydroxy-triosidine”

[2] = Formation of singlet oxygen through photosensitizing effect, ESR with 4-OH-TEMP (Examples 21, 22); details: astaxanthin final concentration 2.5 mM; blue light
Protocol: 25 μL of GAL691 or Z-Lys(Z)-OH (10 mM, PBS solution), 12.5 μL of 4-hydroxy-2,2,6,6-tetramethylpiperidine (4-OH-TEMP; Tokyo Chemical Industry Co., Ltd., 400 mM, PBS solution), and 12.5 μL of PBS were mixed in a 0.6 mL microtube (Watson) to prepare a reaction solution. 4-OH-TEMP changes into a nitroxide radical by capturing singlet oxygen and is therefore often utilized in the detection of singlet oxygen using ESR (Nakamura et al., J. Clin. Biochem. Nutr., 2011, 49 (2), 87-95). The reaction solution was irradiated with light at UV 365 nm, blue 470 nm, green 530 nm, or red 630 nm for 1 hour using a portable LED light source (MeCan Imaging Inc.). Then, ESR measurement was performed using a portion (50 μL) of each reaction solution. The ESR measurement was carried out under the same conditions as in Example 10 except for some parameters. The changed measurement parameters are as follows: […]
In order to quantify the concentration of the formed nitroxide radical, the following analysis was conducted: the spectrum of the observed nitroxide radical was first simulated with SpinFit module in Xepr software (Bruker Corp.) to identify a radical species (g=2.0058, I=1, AN=17.05 G). Then, the spin concentration (μM) of the simulated nitroxide radical was determined with SpinCount module. […]

SMILES	change in absorbance relative to blank (competition for SJ-5 binding) [1]	change in absorbance relative to blank (competition for PB-1 binding) (PB-1 antibody)	capture of singlet oxygen generated by GAL691 and light irradiation [2]
CC(=O)NC(CCCCNCc1cc(O)c[n+](CCCCC(NC(C)=O)C(=O)O)c1)C(=O)O (stereo not drawn) [Lys-hydroxy-triosidine]	no reduction in absorbance was observed	no reduction in absorbance was observed	–
CC1=C(/C=C/C(C)=C/C=C/C(C)=C/C=C/C=C(C)/C=C/C=C(C)/C=C/C2=C(C)C(=O)[C@@H](O)CC2(C)C)C(C)(C)C[C@H](O)C1=O [astaxanthin]	–	–	captured
